Reference: ChEMBL document CHEMBL3507680, “University of Dundee, Gates Library screen for HepG2 cell viability”

Assay: Human HepG2 cell viability assay in 384 well format
Type: toxicity, cell-based
Design: dose 125 nL, time 70.5 hour; cytotoxicity at 70.5 h: concentration not given beside the values
Conditions: HepG2 cells, read-out: Inhibition

SMILES | cytotoxicity at 70.5 h [%]
COC(=O)CCCC(=O)N1CCC(CO)(CCc2ccccc2)CC1 | -11.9
O=C1CCc2cc(NC(=O)N3CCCN(Cc4cccs4)CC3)ccc21 | -8.02
CC(C)Cn1cncc1CNC1CCCNC1 (configuration not stated) | -4.78
Cc1cc(C)c2nc(C)cc(C(=O)N3CC(O)CO3)c2c1 (configuration not stated) | 17.6
NCCO[C@H]1C[C@@H](O)C12CCN(C(=O)COc1cccc(Cl)c1)CC2 | -5.89
CCN(CCn1cccn1)Cc1nc(-c2cccc(C)c2)oc1C | -5.06
CC(C)c1nc(CN(C)C(=O)CCc2ccc3c(c2)OCO3)cs1 | -9.76
CCCN1CCCn2nc(CNS(=O)(=O)c3cccc(F)c3)cc2C1 | -5.1
CC(c1ccccn1)N(C)Cc1ccc(-n2cncn2)cc1 (configuration not stated) | -8.14
CSCCC(=O)N1CCCN(c2ccccc2C)CC1 | 13.3
Cn1ccnc1C1CCN(S(=O)(=O)c2ccc3[nH]c(=O)[nH]c3c2)CC1 | 15.5
CCc1nc(C)sc1CN1CC[C@@](O)(C2CCOCC2)[C@H](C)C1 | -12.2
COc1cc(N2CCCC(c3ncc[nH]3)C2)ncn1 (configuration not stated) | -1.53
Cc1ccc2nc(C)cc(C(=O)NCc3csc(N(C)C)n3)c2c1 | -2.75
COc1cccc2ccc(CN3CCN(c4cccnc4)CC3)nc12 | 7.51
COC(=O)NCC(=O)N1CCCC(c2ncc[nH]2)C1 (configuration not stated) | -27.3
Fc1cccc(C2(CNC3CCOC4(CCOCC4)C3)CCOCC2)c1 (configuration not stated) | -5.85
Cc1nn(C)cc1CN(C)c1nccc(-c2cn(C)nc2C)n1 | -0.948
CCc1cc(N2CCCC(CC)(C(=O)O)C2)nc(N2CCOCC2)n1 (configuration not stated) | 13.3
CNCc1cn(CC2CCN(CC(C)(C)CN3CCCC3)CC2)nn1 | -13.6
CCCOC(=O)N1CCCC(c2nnc(CN3CCOCC3)n2C)C1 (configuration not stated) | 2.16
Cn1nccc1C(=O)N1CCN(C(=O)C2CCC2)[C@@H]2CS(=O)(=O)C[C@@H]21 | -6.57
CSCc1noc(CNC(=O)C2CCN(C(=O)C3CCC3)CC2)n1 | -11.8

SMILES | cytotoxicity at 70.5 h [%]
COc1ccc(Cc2nc3c([nH]2)CC(C)(C)CNC3=O)c(OC)c1 | -9.23
CCCOc1ccc(C(=O)N2CCN3CCNC(=O)C3C2)cc1Cl (configuration not stated) | -8.43
Cn1cnc2cc(C(=O)N3CCN(CCO)[C@@H]4CS(=O)(=O)C[C@@H]43)ccc21 | -0.937
CCCN(Cc1ccccn1)Cc1ccccc1OC | -6.2
CC(=O)c1ccc(N2CCCC(CO)(CCc3ccccc3)C2)nc1 (configuration not stated) | -1.42
NC(=O)CN1CCC(C(=O)NCc2ccc3c(c2)OCCCO3)CC1 | -8.05
CC1(C)CN(S(=O)(=O)N2CCOCC2)CC1c1ccccc1 (configuration not stated) | 1.45
Cc1cc(C)nc(NCc2cc3n(n2)CCCN(C(=O)C2CCC2)C3)n1 | -1.4
COc1ncc(-c2nccn2-c2ccccc2CN2CCOCC2)cn1 | -7.32
CN1CCC(N2CCC(CN(Cc3ccncc3)C3CCC3)CC2)CC1 | -4.29
Cc1cccc(C(Nc2nccc(C)n2)C2CC2)n1 (configuration not stated) | -4.46
CC(C)c1cc(NCc2csc(N(C)C)n2)nc(N)n1 | 17.1
Cc1ccccc1N1CCCN(C(=O)CCCn2ccnc2C)CC1 | -12.2
Cc1nc(CN2CCCCC2CCc2cccs2)co1 (configuration not stated) | -9.07
COc1ccc2c(c1)OCC(Cc1cc(N3CCCC3)cnn1)C2 (configuration not stated) | 1.96
COc1ccc(-n2cccn2)c(CN2CCC3(CCCN(C)C3=O)C2)c1 (configuration not stated) | -9.91
CCn1ncnc1CN1CCC(CNC(=O)c2ccccc2C#N)C1 (configuration not stated) | 0.027
O=C(Nc1ccccc1)c1cccc(S(=O)(=O)NC[C@@H]2C[C@H](F)CN2)c1 | 6.01
NC(=O)c1noc(Cn2ncc3ccccc3c2=O)n1 | 12.9
Cc1ccc2c(c1)c(CNC(C)Cn1ccnc1)nn2C (configuration not stated) | -5.3
O=S(=O)(CCNCc1cc(O)c2cc(F)ccc2n1)N1CCCC1 | 17.6
CCN(CCO)C[C@@H]1CN(c2cccc(C(F)(F)F)n2)C[C@@H]1CO | -11.5
COCCCN1CCCC2(CCN(S(=O)(=O)c3cccnc3)C2)C1=O (configuration not stated) | 9.1

SMILES | cytotoxicity at 70.5 h [%]
CC(NS(C)(=O)=O)C(=O)N(C)Cc1csc(-c2cccs2)n1 (configuration not stated) | -13.4
CC1(C)CNC(=O)c2nc(C3CCN(C(=O)C4CC4)CC3)[nH]c2C1 | -11
CNC(=O)C(C)(C)N(C)C(=O)c1cc(COc2ccccc2OC)[nH]n1 | -5.11
CN(CC1Cc2ccccc2CN1C)C(=O)CSc1nccn1C (configuration not stated) | -8.61
CC(C)Cc1ncc2c(n1)CN(c1cc(N)nc(N)n1)C2 | -1.3
CC(C)Cc1noc(CN(C)C[C@]2(O)CCCN3CCCC[C@@H]32)n1 | -12.8
COc1ccc(C(=O)N2CCC(c3nccn3C(C)C)CC2)cc1OC | 22.5
CC(=O)Nn1c(C)cc(CN2CCCN(Cc3ccncc3)CC2)c1C | -0.666
COc1cccc(N2CCN(Cc3nccc(OC)c3OC)CC2=O)c1 | -0.0493
Cc1cc(N2CCCN3CCC[C@H]3C2)n2nc(C)c(C)c2n1 | -4.24
Cc1ccc2nc(CN3CCCCC3CCn3cccn3)cn2c1 (configuration not stated) | 6.68
CN(Cc1cccc(-n2cccn2)c1)Cc1c[nH]cn1 | -0.523
CC1(Cc2cccnc2)NCCc2[nH]cnc21 (configuration not stated) | 10.5
Cc1cc(F)ccc1S(=O)(=O)N1C[C@@H](C)[C@@](C)(O)C1 | -3.25
CC(C)N1CCC(N2CCCC(C(=O)NCC3(C)COC3)C2)CC1 (configuration not stated) | -3.7
CCN(CC)C(=O)C1CCCN(c2ncnc3oc(C)nc23)C1 (configuration not stated) | -5.71
CCc1noc(CN(C)C(=O)c2ccccc2-c2ncn[nH]2)n1 | -2.67
CS(=O)(=O)N1C[C@@H]2CC[C@H](C1)N(C(=O)Cn1ccc3ccccc31)C2 | -4.09
Cn1cc(C(=O)N2CC[C@H](N3CCOCC3)[C@H](CCCO)C2)cn1 | -12.1
CCCc1nc(C)cc(N2CCC3(CCC(=O)N(CCO)C3)CC2)n1 | -4.4
COCCn1ccnc1-c1cc(CN2CCCCC2)cs1 | 33.9
CSCc1noc(CNC(=O)C2CCN(C(C)C)CC2)n1 | -12
Cc1nnc(N2CCC(CCn3ccnc3C)CC2)o1 | -5.62

SMILES | cytotoxicity at 70.5 h [%]
CC(=O)NCCC1CCCCN1S(=O)(=O)c1ccc2ccccc2c1 (configuration not stated) | 4.83
CN(C)c1ccc(C(=O)NCCCc2ccccn2)cn1 | -1.92
Cc1ccnc(Cn2cc(-c3cccc(C(C)N(C)C)c3)nn2)c1 (configuration not stated) | -6.95
COc1ncc(-c2ccc(O)cc2)c(OC)n1 | -6.77
Cc1cc(C(=O)N2CCCC(C(=O)c3cccs3)C2)c(=O)[nH]c1C (configuration not stated) | 17.8
CCCc1ccc(CN2CCN(C(=O)NCC)[C@H]3CS(=O)(=O)C[C@H]32)o1 | -15.3
CSCC(=O)N1CCCC(CO)(CC2CC2)C1 (configuration not stated) | -11
Cc1ccc([C@@H]2CN(C(=O)c3ccsc3)C[C@H]2NC(=O)C2CC2)cc1 | -8.66
CC(C)c1nc(CN(C)C(=O)[C@H](N)Cc2ccc(Cl)cc2)cs1 | 2.45
CC(C)N1CCCC2(CCN(c3nccc(C(F)(F)F)n3)C2)C1=O (configuration not stated) | -3.02
Cc1cc(C)c2c(c1)C(CC(=O)O)C(=O)N2 (configuration not stated) | 24.2
CC(C)c1cc(CN2CCN(c3cccnc3)CC2)n(C)n1 | 5.33
Cc1cc(N2CCC3(CCCN(C4CCOCC4)C3=O)C2)ccn1 (configuration not stated) | -4.29
Cc1ccc(CN(Cc2ccccn2)C(=O)C2CCCCCN2C)s1 (configuration not stated) | 27.3
CN1CCC(Cc2nc(-c3ccnn3C)n(Cc3ccccc3)n2)CC1 | 12.7
O=C(Cc1ccncc1)N1C[C@@H]2CC[C@H](C1)N(Cc1ccccc1)C2=O | -3.45
O=C(c1ccc(C2CCCN2)s1)N1CCN2CCC1CC2 (configuration not stated) | -5.88
CCN(Cc1noc(C)n1)C(=O)CCn1c(C)cc2ccccc21 | -6.29
O=C(CCCN1CCCCC1)N1CCC(c2nnc[nH]2)CC1 | -4.84
Cc1nccn1CCN1C(=O)CC2(CCCC2)CC1=O | -9
Cc1ccnc(NCCNC(=O)Cc2c(C)[nH]c3c(C)ccc(C)c23)c1 | 34.5
CN(C)CC1(O)CCCN(c2ccnc3c(C(F)(F)F)cccc23)C1 (configuration not stated) | -5.96
COc1nc2c(cc1C(=O)NCCc1nc3c(s1)CCC3)CCC2 | 3.25

SMILES | cytotoxicity at 70.5 h [%]
CC(C)N1CCC(C(=O)N2CCCN(c3ccccc3)CC2)CC1 | -8.78
CC(=O)N1CCCn2nc(CNC(=O)N3CCCCC3)cc2C1 | 19.2
CCCc1cnc(C)nc1NCCc1nc(C)cc(=O)[nH]1 | -9.64
Cc1cc2cccc(C(=O)N3CC[C@](C)(O)[C@H](C)C3)c2o1 | 14.5
CCc1cc(-c2nccn2-c2ccccc2CN2CCOCC2)on1 | 16.1
CC(=O)N1CCc2c(nc(N(C)C)nc2N(C)CCO)C1 | -2.49
CNc1nc(C(=O)N2CCC3(CCCN(C)C3=O)C2)cs1 (configuration not stated) | -4.39
O[C@@]1(Cn2cnc(Cl)c2Cl)CCCN2CCCC[C@@H]21 | -12.5
COCCOCC(=O)N1CCCC(c2ncc[nH]2)C1 (configuration not stated) | -16.6
CC(C)Oc1cccc(F)c1C(C(=O)O)N1CCCC1 (configuration not stated) | -11.9
Cc1nn(C)c(C)c1NC(=O)c1cccc(CN2CCS(=O)(=O)CC2)c1 | -6.09
Cc1ccc(C(=O)N2C[C@@H]3CC[C@H](C2)N(CC2CCC2)C3)s1 | 7.49
CCNC(=O)[C@@H]1C[C@@H](N)CN1C(=O)c1cc2ccccc2[nH]1 | -1.64
OCC1(Cc2ccc(Cl)cc2)CCN(Cc2cccnc2)CC1 | 10.8
COCC(=O)N1CCCC1c1ccc(C(=O)NCc2ccccc2Cl)s1 (configuration not stated) | -11.5
CC(C)c1cc(C(=O)N[C@H]2CN(C3CCOCC3)C[C@@H]2C2CC2)no1 | -6.62
COc1ccc(C(=O)N2CCOC(Cc3cccc(C(F)(F)F)c3)C2)o1 (configuration not stated) | -7.8
c1ccc(-c2ncn(CCCN3CCOCC3)c2-c2ccncc2)cc1 | -6.69
CCN(CC)CCn1ccnc1-c1cccc(O)c1 | 1.22
Fc1cccc(-c2cccc(N3CCC(NC4CCCOC4)CC3)c2)c1 (configuration not stated) | 33.8
